Results: patent US6552061B1, “Amino acid derivatives and anti-inflammatory agents” (Ajinomoto Co., Inc., priority 1998, dated 2003)
Like-named read-outs stand apart in the source and are kept apart here.

What was measured:
Type in all cases: cell-based
NF-κB = experiment: Test for an Activity of Inhibiting NF-κB Activation (gel shift assay, UVB-irradiated human epidermal cells); details: light or radiation study, read-out: inhibitory rate (%) of NF-κB activation; for inhibition at 1000 µM: concentration 1 mM; for inhibition at 2000 µM: concentration 2 mM; for inhibition at 10 µM: concentration 10 μM; for inhibition at 50 µM: concentration 50 μM
Procedure: Test for an Activity of Inhibiting NF-κB Activation
(§1) Eighteen hours later, the culture solution was replaced with a phenol red-free medium. The cells were subjected to UV irradiation (UVB: 50 mJ/m^2)using Dermaray M-DMR-80 (supplied by Toshiba Iryo Yohin KK). After from 4 to 5 hours passed, the cells were recovered, and the nucleoproteins were extracted in a usual manner. With respect to the resulting nucleoproteins, NF-κB activated by gel shift assay was detected. The amount of NF-κB was determined by measuring a radioactivity of an NF-κB band using a bio-imaging analyzer BAS 2000 (supplied by Fuji Photo Film). The rate of inhibition of NF-κB activation on the test compound was calculated using formula (III).
Rate (%) of inhibition of NF-κB activation={1−(A1−A3)/(A2−A3)}×100 (III)
A1: radioactivity of an NF-κB band in the addition of the test compound
A2: radioactivity of an NF-κB band in the non-addition of the test compound
A3: radioactivity of an NF-κB band when the test compound was not added, nor was UV irradiation conducted

collagenase = experiment: Test for an Activity of Inhibiting Collagenase Expression (MMP-1 ELISA, UVA-irradiated human dermal fibroblasts); details: Fibroblast, light or radiation study, 24 h, read-out: inhibitory rate (%) of collagenase expression; for inhibition at 10 µM: concentration 10 μM
Procedure: Test for an Activity of Inhibiting Collagenase Expression
(§2) The test compound was added to human dermal fibroblasts which had become confluent in a culture plate. Eighteen hours later, the culture solution was replaced with a phenol red-free medium. The cells were subjected to UV irradiation (UVA; 20 J/cm^2) using Dermaray M-DMR-80 (supplied by Toshiba Iryo Yohin KK). After 24 hours passed, the culture solution was recovered, and the collagenase concentration in the culture solution was measured using MMP-1α·ELISA System (supplied by Amersham Corp.). The rate of inhibition of collagenase expression on the test compound was calculated using formula (VI).
Rate (%) of inhibition of collagenase expression={1−(B4−B6)/(B5−B6)}×100 (VI)
B4: collagenase concentration in the addition of the test compound
B5: collagenase concentration in the non-addition of the test compound
B6: collagenase concentration when the test compound was not added, nor was UV irradiation conducted

AP-1 = experiment: Test for an Activity of Inhibiting AP-1 Activation (gel shift assay, UVA-irradiated human dermal fibroblasts); details: AP1, light or radiation study, read-out: inhibitory rate (%) of AP-1 activation; for inhibition at 1 µM: concentration 1 μM; for inhibition at 500 µM: concentration 0.5 mM
Procedure: Test for an Activity of Inhibiting AP-1 Activation
as §1, with “The test compound was added to human dermal fibroblasts which had become confluent in a culture plate. Eighteen” for “Eighteen”, “(UVA: 20 J/cm^2) using” for “(UVB: 50 mJ/m^2)using”, “AP-1” for “NF-κB”, “(IV).” for “(III).”
Rate (%) of inhibition of AP-1 activation={1−(A4−A6)/(A5−A6)}×100 (IV)
A4: radioactivity of an AP-1 band in the addition of the test compound
A5: radioactivity of an AP-1 band in the non-addition of the test compound
A6: radioactivity of an AP-1 band when the test compound was not added, nor was UV irradiation conducted

IL-1α = experiment: Test for an Activity of Inhibiting IL-1α Expression (ELISA, UVB-irradiated human epidermal cells); details: light or radiation study, 24 h, read-out: inhibitory rate (%) of IL-1α expression; for inhibition at 20 µM: concentration 20 μM; for inhibition at 50 µM: concentration 50 μM; for inhibition at 10 µM: concentration 10 μM; for inhibition at 500 µM: concentration 0.5 mM; for inhibition at 1000 µM: concentration 1 mM; for inhibition at 10000 µM: concentration 10 mM
Procedure: Test for an Activity of Inhibiting IL-1α Expression
as §2, with “epidermal cells” for “dermal fibroblasts”, “(UVB: 50 mJ/cm^2)” for “(UVA; 20 J/cm^2)”, “IL-1α” for “collagenase”, “IL-1α·ELISA” for “MMP-1α·ELISA”, “(V).” for “(VI).”
Rate (%) of inhibition of IL-1α expression={1−(B1−B3)/(B2−B3)}×100 (V)
B1: IL-1α concentration in the addition of the test compound
B2: IL-1α concentration in the non-addition of the test compound
B3: IL-1α concentration when the test compound was not added, nor was UV irradiation conducted

What does the source list for `CCOC(=O)[C@@H](C)NCc1ccccc1O` [N-(2-hydroxybenzyl)-D-alanine ethyl ester]?
inhibition at 1000 µM (NF-κB): 90%; inhibition at 2000 µM (NF-κB): 87%; inhibition at 500 µM (collagenase; concentration 0.5 mM): 108%

`CCCCCCCCCCCCNC(=O)[C@@H](C)NCc1ccccc1O` [N-(2-hydroxybenzyl)-D-alanine lauryl amide] was tested. Which inhibition at 10 µM (NF-κB) did it give?
Its inhibition at 10 µM is 29%.

And the inhibition at 50 µM (NF-κB)?
Its inhibition at 50 µM is 97%.

And the inhibition at 1 µM (AP-1)?
Its inhibition at 1 µM is 14%.

And the inhibition at 20 µM (AP-1; concentration 20 μM)?
The inhibition at 20 µM was 31%.

What about the inhibition at 20 µM (IL-1α) of the same molecule?
Its inhibition at 20 µM is 25%.

And the inhibition at 50 µM (IL-1α)?
Its inhibition at 50 µM is 79%.

Which results are given for `CCCCCCCCCCCCOC(=O)[C@@H](C)NCc1ccccc1O` [N-(2-hydroxybenzyl)-D-alanine lauryl ester]?
inhibition at 50 µM (NF-κB): 60%; inhibition at 100 µM (NF-κB; concentration 100 μM): 59%; inhibition at 10 µM (IL-1α): 35%; inhibition at 50 µM (IL-1α): 31%

What does the source list for `CCNC(=O)[C@H](C)NCc1ccccc1O` [N-(2-hydroxybenzyl)-L-alanine ethyl amide]?
inhibition at 1000 µM (NF-κB): 43%; inhibition at 2000 µM (NF-κB): 26%; inhibition at 1000 µM (AP-1; concentration 1 mM): 52%; inhibition at 2000 µM (AP-1; concentration 2 mM): 131%; inhibition at 500 µM (IL-1α): 81%; inhibition at 1000 µM (IL-1α): 99%

With `CCOC(=O)[C@H](C)NCc1ccccc1O` [N-(2-hydroxybenzyl)-L-alanine ethyl ester] as the molecule, how does the inhibition at 200 µM (NF-κB; concentration 0.2 mM) read?
Its inhibition at 200 µM is 68%.

And the inhibition at 2000 µM (NF-κB)?
The inhibition at 2000 µM was 77%.

What about the inhibition at 500 µM (AP-1) of the same molecule?
The inhibition at 500 µM was 26%.

What about the inhibition at 200 µM (IL-1α; concentration 0.2 mM) of the same molecule?
Its inhibition at 200 µM is 61%.

What about the inhibition at 2000 µM (IL-1α; concentration 2 mM) of the same molecule?
The inhibition at 2000 µM was 100%.

How did the inhibition at 100 µM (AP-1; concentration 0.1 mM) turn out when `CC(C)OC(=O)[C@H](C)NCc1ccccc1O` [N-(2-hydroxybenzyl)-L-alanine isopropyl ester] was run?
The inhibition at 100 µM was 20%.

What about the inhibition at 500 µM (AP-1) of the same molecule?
Its inhibition at 500 µM is 35%.

And the inhibition at 100 µM (IL-1α; concentration 0.1 mM)?
Its inhibition at 100 µM is 36%.

What about the inhibition at 1000 µM (IL-1α) of the same molecule?
Its inhibition at 1000 µM is 53%.

For `C[C@H](NCc1ccccc1O)C(=O)O` [N-(2-hydroxybenzyl)-L-alanine], which inhibition at 1000 µM (NF-κB) is on record?
Its inhibition at 1000 µM is 20%.

And the inhibition at 1 µM (IL-1α; concentration 1 μM)?
Its inhibition at 1 µM is 14%.

And the inhibition at 10 µM (IL-1α)?
The inhibition at 10 µM was 100%.

With `CCOC(=O)[C@H](CCCNC(=N)N)NCc1ccccc1O` [N-(2-hydroxybenzyl)-L-arginine ethyl ester] as the molecule, how does the inhibition at 500 µM (IL-1α) read?
The inhibition at 500 µM was 65%.

What does the source list for `CCCCCCCCCCCCNC(=O)[C@H](CCCNC(=N)N)NCc1ccccc1O` [N-(2-hydroxybenzyl)-L-arginine lauryl amide]?
inhibition at 10 µM (NF-κB): 16%; inhibition at 50 µM (NF-κB): 28%

With `CCCCCCCCCCCCOC(=O)[C@H](CCCNC(=N)N)NCc1ccccc1O` [N-(2-hydroxybenzyl)-L-arginine lauryl ester] as the molecule, how does the inhibition at 10 µM (collagenase) read?
The inhibition at 10 µM was 52%.

For `CCOC(=O)[C@H](CC(C)C)NCc1ccccc1O` [N-(2-hydroxybenzyl)-L-leucine ethyl ester], which inhibition at 1000 µM (NF-κB) is on record?
The inhibition at 1000 µM was 84%.

What about the inhibition at 2000 µM (NF-κB) of the same molecule?
Its inhibition at 2000 µM is 57%.

With `CCCCCCCCCCCCOC(=O)[C@H](CC(C)C)NCc1ccccc1O` [N-(2-hydroxybenzyl)-L-leucine lauryl ester] as the molecule, how does the inhibition at 10 µM (NF-κB) read?
Its inhibition at 10 µM is 21%.

What about the inhibition at 20 µM (NF-κB; concentration 20 μM) of the same molecule?
The inhibition at 20 µM was 23%.

And the inhibition at 10 µM (collagenase)?
The inhibition at 10 µM was 21%.

How did the inhibition at 100 µM (IL-1α; concentration 0.1 mM) turn out when `CCOC(=O)[C@H](Cc1ccccc1)NCc1ccccc1O` [N-(2-hydroxybenzyl)-L-phenylalanine ethyl ester] was run?
The inhibition at 100 µM was 25%.

What does the source list for `CCOC(=O)[C@@H]1CCC(=O)N1Cc1ccccc1O` [N-(2-hydroxybenzyl)-L-pyroglutamic acid ethyl ester]?
inhibition at 1000 µM (NF-κB): 53%; inhibition at 2000 µM (NF-κB): 85%; inhibition at 500 µM (IL-1α): 84%; inhibition at 1000 µM (IL-1α): 55%

Which results are given for `CCCCCCCCCCCCOC(=O)[C@H](CO)NCc1ccccc1O` [N-(2-hydroxybenzyl)-L-serine lauryl ester]?
inhibition at 50 µM (NF-κB): 79%; inhibition at 1 µM (AP-1): 43%; inhibition at 10 µM (AP-1; concentration 10 μM): 49%; inhibition at 10 µM (IL-1α): 12%; inhibition at 100 µM (IL-1α; concentration 100 μM): 31%

Which inhibition at 10000 µM (NF-κB; concentration 10 mM) does the source give for `O=C(O)[C@H](CO)NCc1ccccc1O` [N-(2-hydroxybenzyl)-L-serine] here?
Its inhibition at 10000 µM is 17%.

And the inhibition at 30000 µM (NF-κB; concentration 30 mM)?
The inhibition at 30000 µM was 34%.

And the inhibition at 10000 µM (IL-1α)?
Its inhibition at 10000 µM is 62%.

What about the inhibition at 30000 µM (IL-1α; concentration 30 mM) of the same molecule?
The inhibition at 30000 µM was 70%.

Which results are given for `CCNC(=O)[C@H](Cc1ccc(O)cc1)NCc1ccccc1O` [N-(2-hydroxybenzyl)-L-tyrosine ethyl amide]?
inhibition at 1000 µM (NF-κB): 72%; inhibition at 2000 µM (NF-κB): 28%

What does the source list for `CCOC(=O)[C@H](Cc1ccc(O)cc1)NCc1ccccc1O` [N-(2-hydroxybenzyl)-L-tyrosine ethyl ester]?
inhibition at 100 µM (NF-κB; concentration 0.1 mM): 64%; inhibition at 500 µM (NF-κB; concentration 0.5 mM): 81%

How did the inhibition at 10 µM (collagenase) turn out when `CCOC(=O)CNCc1ccccc1O` [N-(2-hydroxybenzyl)glycine ethyl ester] was run?
Its inhibition at 10 µM is 39%.

What about the inhibition at 100 µM (collagenase; concentration 100 μM) of the same molecule?
Its inhibition at 100 µM is 46%.

Which results are given for `CCCCCCCCCCCCNC(=O)CNCc1ccccc1O` [N-(2-hydroxybenzyl)glycine lauryl amide]?
inhibition at 20 µM (IL-1α): 13%; inhibition at 50 µM (IL-1α): 45%

What does the source list for `O=C(O)CNCc1ccccc1O` [N-(2-hydroxybenzyl)glycine]?
inhibition at 5000 µM (NF-κB; concentration 5 mM): 36%; inhibition at 5000 µM (IL-1α; concentration 5 mM): 26%; inhibition at 10000 µM (IL-1α): 88%

Which results are given for `S=C(S)N1CCCC1` [pyrrolidinedithiocarbamate, reference compound]?
inhibition at 5 µM (NF-κB; concentration 5 μM): -9%; inhibition at 10 µM (NF-κB): 9%; inhibition at 5 µM (IL-1α; concentration 5 μM): -45%
